# Assay results reported in patent US20230000996A1, “RAPAFUCIN DERIVATIVE COMPOUNDS AND METHODS OF USE THEREOF” (The Johns Hopkins University, priority 2019, published 2023).
# Assay: Nucleoside uptake, single concentration assay (Rel.Uptake); cell line indicated in each table
# Type: cell-based
# Settings: 293T cells; single concentration; response relative to DMSO
# Protocol: Nucleoside Uptake Assay (uptake). Nuceloside uptake assays were performed with using 3H-Thymidine as described in Guo et al. (2018) Nat. Chem. 11:254-63. Specific cell lines are indicated in each assay and cultured in complete growth media. Activity is scored according to the IC50 values relative to DMSO control. “Low” indicates an IC50 greater than 600 nM, “Medium” indicates an IC50 between 300 nM and 600 nM “High” indicates an IC50 less than 300 nM. “Rel.Uptake” refers to uptake activity characterization relative to a single concentration assay. “Low” indicates a response greater than 0.6 times the activity relative to DMSO, “Medium” indicates a response between 0.6 and 0.3 times the activity relative to DMSO, “High” indicates a response less than 0.3 times the activity relative to DMSO.
row,Structure (SMILES),"Rel. Uptake, 293T"
1,COc1ccc(CC[C@H]2OC(=O)[C@@H]3CCCCN3C(=O)C(=O)C(C)(C)COC(=O)C=CCCN(C)C(=O)[C@H](CC(C)C)N(C)C(=O)[C@H]3CCCN3C(=O)[C@H](CC(=O)OC(C)(C)C)N(C)C(=O)C(c3ccccc3)NC(=O)CCC(=O)Nc3cccc2c3)cc1OC (some centres unmarked) [Compound 1066],high
2,COc1ccc(CC[C@H]2OC(=O)[C@@H]3CCCCN3C(=O)C(=O)C(C)(C)COC(=O)C=CCCN(C)C(=O)[C@H](CC(C)C)N(C)C(=O)[C@H]3CCCN3C(=O)[C@H](Cc3ccc(CC(=O)OC(C)(C)C)cc3)NC(=O)C(c3ccccc3)NC(=O)CCC(=O)Nc3cccc2c3)cc1OC (some centres unmarked) [Compound 1081],medium
3,COc1ccc(CC[C@H]2OC(=O)[C@@H]3CCCCN3C(=O)C(=O)C(C)(C)COC(=O)C=CCCN(C)C(=O)[C@H](CC(C)C)N(C)C(=O)[C@H]3CCCN3C(=O)[C@H](Cc3ccc(OCc4ccccc4)cc3)NC(=O)C(c3ccccc3)NC(=O)CCC(=O)Nc3cccc2c3)cc1OC (some centres unmarked) [Compound 1082],low

# Same assay, conditions: nucleoside uptake, single concentration assay, 293T cells, response relative to DMSO
row,Structure (SMILES),"Rel. Uptake, 293T"
1,COc1ccc(CC[C@H]2OC(=O)[C@@H]3CCCCN3C(=O)C(=O)C(C)(C)COC(=O)C=CCCN(C)C(=O)[C@@H](c3ccccc3)NC(=O)[C@H](Cc3ccc(OP(C)(C)=O)cc3)NC(=O)[C@H]3CCCN3C(=O)[C@H](CC(C)C)N(C)C(=O)COc3cccc2c3)cc1OC [Compound 1520],low
2,COc1ccc(CC[C@H]2OC(=O)[C@@H]3CCCCN3C(=O)C(=O)C(C)(C)COC(=O)C=CCCN(C)C(=O)[C@H](CC(C)C)N(C)C(=O)[C@H]3CCCN3C(=O)[C@H](Cc3ccc(O)cc3)NC(=O)C(c3ccccc3)NC(=O)CCC(=O)Nc3cccc2c3)cc1OC (some centres unmarked) [Compound 1522],high
3,COc1ccc(CC[C@H]2OC(=O)[C@@H]3CCCCN3C(=O)C(=O)C(C)(C)CNC(=O)C=CCCN(C)C(=O)[C@H](CC(C)C)N(C)C(=O)[C@H]3CCCN3C(=O)[C@H](Cc3ccccc3)N(C)C(=O)C(c3ccccc3)NC(=O)CCC(=O)Nc3cccc2c3)cc1OC (some centres unmarked) [Compound 1555],high
4,COc1ccc(CC[C@H]2OC(=O)[C@@H]3CCCCN3C(=O)C(=O)C(C)(C)COC(=O)C=CCCN(C)NC(c3ccccc3)C(=O)N(C)[C@@H](Cc3ccccc3)C(=O)N3CCC[C@@H]3C(=O)N(C)[C@@H](CC(C)C)C(=O)C(=O)CCOc3cccc2c3)cc1OC (some centres unmarked) [Compound 1556],low
5,COc1ccc(CC[C@H]2OC(=O)[C@@H]3CCCCN3C(=O)C(=O)C(C)(C)COC(=O)C=CCCN(C)C(=O)[C@H](CC(C)C)N(C)C(=O)[C@H]3CCCN3C(=O)[C@H](Cc3ccc(C(=O)NCCO)cc3)NC(=O)[C@H](c3ccccc3)NC(=O)CCC(=O)Nc3cccc2c3)cc1OC [Compound 1558],high
6,COc1ccc(CC[C@H]2OC(=O)[C@@H]3CCCCN3C(=O)C(=O)C(C)(C)COC(=O)C=CCCN(C)C(=O)[C@H](CC(C)C)N(C)C(=O)[C@H]3CCCN3C(=O)[C@H](Cc3ccc(C(=O)Nc4cccnc4)cc3)NC(=O)[C@H](c3ccccc3)NC(=O)CCC(=O)Nc3cccc2c3)cc1OC [Compound 1562],low
7,CCCC[C@H]1C(=O)N[C@@H](Cc2ccc3ccccc3c2)C(=O)N(C)[C@@H](COC(C)(C)C)C(=O)NCC(=O)N(C)CCC=CC(=O)OCC(C)(C)C(=O)C(=O)N2CCCC[C@H]2C(=O)O[C@H](CCc2ccc(OC)c(OC)c2)c2cccc(c2F)OCC(=O)N1C [Compound 1563],high
8,CCCC[C@H]1C(=O)N[C@@H](Cc2ccc3ccccc3c2)C(=O)N(C)[C@@H](COC(C)(C)C)C(=O)NCC(=O)N(C)CCC=CC(=O)OCC(C)(C)C(=O)C(=O)N2CCCC[C@H]2C(=O)O[C@H](CCc2ccc(OC)c(O)c2)c2cccc(c2)OCC(=O)N1C [Compound 1564],high
9,CCCC[C@H]1C(=O)N[C@@H](Cc2ccc3ccccc3c2)C(=O)N(C)[C@@H](COC(C)(C)C)C(=O)NCC(=O)N(C)CCC=CC(=O)OCC(C)(C)C(=O)C(=O)N2CCCC[C@H]2C(=O)O[C@H](CCc2ccc(OC)c(OC)c2)c2cncc(c2)OCC(=O)N1C [Compound 1565],low
10,COc1cc(CC[C@H]2OC(=O)[C@@H]3CCCCN3C(=O)C(=O)C(C)(C)COC(=O)C=CCCN(C)C(=O)[C@@H](Cc3ccccc3)NC(=O)CN(C)C(=O)[C@@H](Cc3ccccc3)NC(=O)[C@H](Cc3ccc(O)cc3)N(C)C(=O)COc3cccc2c3)cc(OC)c1OC [Compound 1566],medium
11,COc1cc(CC[C@H]2OC(=O)[C@@H]3CCCCN3C(=O)C(=O)C(C)(C)COC(=O)C=CCCN(C)C(=O)[C@@H](Cc3ccccc3)NC(=O)CN(C)C(=O)[C@@H](Cc3ccccc3)NC(=O)[C@H](Cc3ccc(O)cc3)N(C)C(=O)COc3cccc2c3)cc(O)c1OC [Compound 1567],medium
12,COc1cc(O)c(CC[C@H]2OC(=O)[C@@H]3CCCCN3C(=O)C(=O)C(C)(C)COC(=O)C=CCCN(C)C(=O)[C@@H](Cc3ccccc3)NC(=O)CN(C)C(=O)[C@@H](Cc3ccccc3)NC(=O)[C@H](Cc3ccc(O)cc3)N(C)C(=O)COc3cccc2c3)cc1OC [Compound 1568],low
13,COc1cc(CC[C@H]2OC(=O)[C@@H]3CCCCN3C(=O)C(=O)C(C)(C)COC(=O)C=CCCN(C)C(=O)[C@@H](Cc3ccccc3)NC(=O)CN(C)C(=O)[C@@H](Cc3ccccc3)NC(=O)[C@H](Cc3ccc(O)cc3)N(C)C(=O)COc3cccc2c3)cc(F)c1OC [Compound 1569],low
14,COc1cc(F)c(CC[C@H]2OC(=O)[C@@H]3CCCCN3C(=O)C(=O)C(C)(C)COC(=O)C=CCCN(C)C(=O)[C@@H](Cc3ccccc3)NC(=O)CN(C)C(=O)[C@@H](Cc3ccccc3)NC(=O)[C@H](Cc3ccc(O)cc3)N(C)C(=O)COc3cccc2c3)cc1OC [Compound 1570],medium
15,COc1ccc(CC[C@H]2OC(=O)[C@@H]3CCCCN3C(=O)C(=O)C(C)(C)COC(=O)C=CCCN(C)C(=O)[C@@H](Cc3ccccc3)NC(=O)CN(C)C(=O)[C@@H](Cc3ccccc3)NC(=O)[C@H](Cc3ccc(O)cc3)N(C)C(=O)COc3cccc2c3)c(F)c1OC [Compound 1571],low
16,COc1ccc(CC[C@H]2OC(=O)[C@@H]3CN(C(=O)OCC4c5ccccc5-c5ccccc54)CCN3C(=O)C(=O)C(C)(C)COC(=O)C=CCCN(C)C(=O)[C@@H](Cc3ccccc3)NC(=O)CN(C)C(=O)[C@@H](Cc3ccccc3)NC(=O)[C@H](Cc3ccc(O)cc3)N(C)C(=O)COc3cccc2c3)cc1OC [Compound 1572],low
17,COc1ccc(CC[C@H]2OC(=O)[C@@H]3CNCCN3C(=O)C(=O)C(C)(C)COC(=O)C=CCCN(C)C(=O)[C@@H](Cc3ccccc3)NC(=O)CN(C)C(=O)[C@@H](Cc3ccccc3)NC(=O)[C@H](Cc3ccc(O)cc3)N(C)C(=O)COc3cccc2c3)cc1OC [Compound 1573],low
18,COc1ccc(CC[C@H]2OC(=O)[C@@H]3CN(C)CCN3C(=O)C(=O)C(C)(C)COC(=O)C=CCCN(C)C(=O)[C@@H](Cc3ccccc3)NC(=O)CN(C)C(=O)[C@@H](Cc3ccccc3)NC(=O)[C@H](Cc3ccc(O)cc3)N(C)C(=O)COc3cccc2c3)cc1OC [Compound 1574],low
19,COc1ccc(CC[C@H]2OC(=O)[C@@H]3CCCCN3C(=O)C(=O)C(C)(C)COC(=O)C=CCCN(C)C(=O)[C@@H](Cc3ccccc3)NC(=O)CN(C)C(=O)[C@@H](Cc3ccccc3)NC(=O)[C@H](Cc3ccc(O)cc3)N(C)C(=O)COc3ccc(F)c2c3)cc1OC [Compound 1575],low
20,COc1ccc(CC[C@H]2OC(=O)[C@@H]3CCCCN3C(=O)C(=O)C(C)(C)COC(=O)C=CCCN(C)C(=O)[C@@H](Cc3ccccc3)NC(=O)CN(C)C(=O)[C@@H](Cc3ccccc3)NC(=O)[C@H](Cc3ccc(O)cc3)N(C)C(=O)COc3cc(F)cc2c3)cc1OC [Compound 1576],medium
21,COc1ccc(CC[C@H]2OC(=O)[C@@H]3CCCCN3C(=O)C(=O)C(C)(C)COC(=O)C=CCCN(C)C(=O)[C@@H](Cc3ccccc3)NC(=O)CN(C)C(=O)[C@@H](Cc3ccccc3)NC(=O)[C@H](Cc3ccc(O)cc3)N(C)C(=O)COc3cccc2c3)c(OC)c1OC [Compound 1577],medium
22,COc1ccc(CC[C@H]2OC(=O)[C@@H]3CCCCN3C(=O)C(=O)C(C)(C)COC(=O)C=CCCN(C)C(=O)[C@@H](Cc3ccccc3)NC(=O)CN(C)C(=O)[C@@H](Cc3ccccc3)NC(=O)[C@H](Cc3ccc(O)cc3)N(C)C(=O)COc3cc2ccc3F)cc1OC [Compound 1578],low
23,COc1ccc(CC[C@H]2OC(=O)[C@@H]3CCCCN3C(=O)C(=O)C(C)(C)COC(=O)C=CCCN(C)C(=O)[C@@H](Cc3ccccc3)NC(=O)CN(C)C(=O)[C@@H](Cc3ccccc3)NC(=O)[C@H](Cc3ccc(O)cc3)N(C)C(=O)COc3cccc2c3F)cc1OC [Compound 1579],medium
24,COc1ccc(CC[C@H]2OC(=O)[C@@H]3CCCCN3C(=O)C(=O)C(C)(C)COC(=O)C=CCCN(C)C(=O)[C@@H](Cc3ccccc3)NC(=O)CN(C)C(=O)[C@@H](Cc3ccccc3)NC(=O)[C@H](Cc3ccc(O)cc3)N(C)C(=O)COc3cncc2c3)cc1OC [Compound 1580],low
25,COc1cc(OC)c(OC)cc1CC[C@H]1OC(=O)[C@@H]2CCCCN2C(=O)C(=O)C(C)(C)COC(=O)C=CCCN(C)C(=O)[C@@H](Cc2ccccc2)NC(=O)CN(C)C(=O)[C@@H](Cc2ccccc2)NC(=O)[C@H](Cc2ccc(O)cc2)N(C)C(=O)COc2cccc1c2 [Compound 1581],medium
26,COc1cc(CC[C@H]2OC(=O)[C@@H]3CCCCN3C(=O)C(=O)C(C)(C)COC(=O)C=CCCN(C)C(=O)[C@@H](Cc3ccccc3)NC(=O)CN(C)C(=O)[C@@H](Cc3ccccc3)NC(=O)[C@H](Cc3ccc(O)cc3)N(C)C(=O)COc3cccc2c3)c(OC)c(OC)c1 [Compound 1582],low
